Assay results taken from article PMC8016481, “Tachykinin signaling inhibits task-specific behavioral responsiveness in honeybee workers” (eLife, 2021).

Tested on: ERK phosphorylation
Experiment: ERK phosphorylation in brain of worker bees after TRP2 injection or TRP/TRPR knockdown (Western blot)
Type: in vivo, Apis mellifera ligustica
Conditions: for ERK phosphorylation in brain: 6A
Procedure: Cells were seeded in 24-well plates and starved for 4 hr in serum-free medium to reduce background ERK1/2 activation and eliminate the effects of the change of medium. […] Protein concentration was determined according to the Bradford method using BSA as the standard and the absorption was measured at 595 nm (spectrophotometer DU800, Beckman Coulter, USA), then all the samples were kept in −80°C for further use. For Western blot, equal amounts of total cell lysate (20 μg/lane) were fractionated by SDS-PAGE (10%) and transferred to a PVDF membrane (Millipore, USA) using an iBlot dry blotting system (Invitrogen, USA). The membranes were blocked for 2 hr at room temperature and then incubated with rabbit monoclonal anti-pERK1/2 antibody (Cell Signaling Technology, USA) and anti-rabbit horseradish peroxidase-conjugated secondary antibody (Cell Signaling Technology) according to the manufacturers’ protocols. Antibody reactive bands were visualized using Pierce ECL western blotting substrate (Thermo Fisher Scientific, USA) followed by photographic film exposure. Total ERK1/2 was assessed as a loading control after p-ERK1/2 chemiluminescence detection. Quantification analyses were performed using Gel-Pro Analyzer 4.0 software (Media Cybernetics, USA).
Three independent replicate groups per condition were collected and Western blot analyses were performed: Honeybee brains were carefully dissected and frozen at −80°C until protein extraction. Brain protein extractions were carried out according to our previously described method with some modifications. Briefly, the […] were homogenized with lysis buffer (LB, 8 M urea, 2 M thiourea, 4% CHAPS, 20 mM Tris-base, 30 mM dithiothreitol). The mixture was homogenized for 30 min on ice and sonicated 20 s per 5 min during this time, then centrifuged at 12,000 g and 4°C for 10 min. Ice-cold acetone was added to the collected supernatants, and then the mixture was kept on ice for 30 min for protein precipitation. Subsequently, the mixture was centrifuged at 12,000 g and 4°C for 10 min. The supernatant was discarded and the pellets were resolved in LB and kept at −20°C for further use. Western blot analyses were performed as described in 'TRP/TRPR signaling targets: cAMP, Ca^2+, and ERK' section.

With “ALMGFQGVRa [TRP2, honeybee tachykinin-related peptide 2, synthesized by SynPeptide]” the “ERK phosphorylation in brain” value (NB, replicate 1) was 0.0746, the “ERK phosphorylation in brain” value (NB, replicate 2) was 0.0650 and the “ERK phosphorylation in brain” value (NB, replicate 3) was 0.0783. For the same substance, the “ERK phosphorylation in brain” value (NF, replicate 1) was 0.5050, the “ERK phosphorylation in brain” value (NF, replicate 2) was 0.5454 and the “ERK phosphorylation in brain” value (NF, replicate 3) was 0.5933. For the same substance, the “ERK phosphorylation in brain” value (PF, replicate 1) was 0.2191, the “ERK phosphorylation in brain” value (PF, replicate 2) was 0.2416 and the “ERK phosphorylation in brain” value (PF, replicate 3) was 0.2036. The “level of phosphorylated ERK in brain” value (after injection into NBs, PFs and NFs, vs ddH2O) was “significantly increased”.
